Experiments:
Type in all cases: cell-based
H1299_eGFP cells = assay: siNG transfection and sequential adjuvant treatment, eGFP silencing by flow cytometry
H1299_WT cells [1] = assay: Release of FITC-dextrans into the cytosol (confocal microscopy); conditions: 40 μM, 20 h, 10 kDa FITC-dextran; listed as DL
Description: (§1) To visualize the FITC-dextran release, a 1 mg/mL dispersion of 10 kDa FITC-dextrans (Sigma-Aldrich, Belgium) in complete cell medium was added during 1 hour at 37° C. in a humidified atmosphere containing 5% CO2. To assess oligonucleotide escape, the NGs were first loaded with 100 nM Alexa Fluor 647-labeled oligonucleotides (21-mer) (Eurogentec, Belgium) according to the procedure described for siRNA complexation. Of note, these oligonucleotides transfer to the nucleus upon release into the cytosol (Rehman et al., ACS Nano, 2013). Following four hours of NG transfection or 1 h incubation with FITC-dextrans, the cells were washed with PBS and received 1.5 mL fresh cell medium with or without 10, 20 or 40 μM DL. After an additional incubation period of 20 hours, the cell medium was removed and nuclei were labeled with Hoechst (Molecular Probes™, Belgium) in cell medium during 15 minutes at 37° C. […]
(§2) The samples were imaged using a laser scanning confocal microscope (LSCM, C1si, Nikon) and a 60× oil immersion Plan Apo objective (Nikon, Belgium). […] During data analysis with the ImageJ image processing software (NIH) both the total cell number and amount of cells with a diffuse FITC-dextran labeling or oligonucleotide-positive nuclei were counted. […]

H1299_WT cells [2] = assay: Release of NG-delivered labeled oligonucleotides into the cytosol (positive nuclei); conditions: 40 μM, 20 h, after NG transfection; listed as DL
Description: as §1, §2

H1299_WT cells [3] = assay: Sphingomyelin detection with lysenin; conditions: after siNG transfection
Description: Cell seeding, transfection and DL treatment of the H1299_WT cells occurred similar to the previous microscopy experiments. The subsequent staining procedure was carried out at room temperature. Following one washing step with PBS, the cells were fixed with 4% PFA during 15 minutes. The fixative was removed, the cells washed twice with PBS and permeabilized with 0.5% Tween 20 for 15 minutes. Next, the cells were washed twice with blocking buffer (BB, 2 wt % bovine serum albumin (Amresco, USA) in PBS) and kept in BB during 30 minutes. Upon removal, the cells were incubated 2 hours with a 1 μg/mL lysenin (Sigma-Aldrich, Belgium) solution in BB. Next the cells were washed twice with PBS before incubating 1 hour with the lysenin rabbit anti-human antiserum (1:500 in BB, Peptanova, Germany). Before and after the subsequent 1 hour incubation period with the secondary goat anti-rabbit Alexa Fluor 647 antibody (1:500 in BB, Molecular Probes™, Belgium), cells were washed with BB. Finally the cells were washed with PBS and stored at 4° C. covered with Vectashield containing DAPI. Using the 408 nm and 633 nm laser lines, the nuclei and sphingomyelin were excited respectively and detected with a LSCM and a 60× oil immersion objective.

Clc1ccc2c(c1)CCc1cccnc1C2=C1CCNCC1 [(3) Desloratadine, Desloratadine]
siNG-mediated gene silencing, 2 h versus 20 h incubation (H1299_eGFP cells; incubation 2 h or 20 h): improve siNG-mediated gene silencing to a similar extent | adjuvant effect on siNG-mediated eGFP silencing (H1299_eGFP cells; sequential treatment 10, 20 or 40 μM, 20 h, siNGs 2 nM siRNA): significant additional silencing | Cells with diffuse FITC-dextran labeling (H1299_WT cells [1]): 26% | Oligonucleotide positive nuclei (H1299_WT cells [2]): 30% | sphingomyelin (lysenin) signal (H1299_WT cells [3]): signal increases as a function of the desloratadine concentration

Source: US11033572B2, “Molecular adjuvants for enhanced cytosolic delivery of active agents” (Universiteit Gent, priority 2017, dated 2021)
